Measurements: ChEMBL document CHEMBL4184108, “Bistachybotrysins A-C, three phenylspirodrimane dimers with cytotoxicity from Stachybotrys chartarum” (Bioorg Med Chem Lett, 2018)

What was measured:
Format in all cases: functional, cell-based
[1] = tested on: HCT-116; assay: Cytotoxicity against human HCT116 cells after 96 hrs by MTT assay; settings: HCT-116, 96 h
[2] = tested on: NCI-H460; assay: Cytotoxicity against human NCI-H460 cells after 96 hrs by MTT assay; settings: NCI-H460, 96 h
[3] = tested on: BGC-823; assay: Cytotoxicity against human BGC823 cells after 96 hrs by MTT assay; settings: BGC-823, 96 h
[4] = tested on: Daoy; assay: Cytotoxicity against human DaOY cells after 96 hrs by MTT assay
[5] = tested on: HepG2; assay: Cytotoxicity against human HepG2 cells after 96 hrs by MTT assay; settings: HepG2, 96 h

Row | SMILES | IC50 [1] | IC50 [2] | IC50 [3] | IC50 [4] | IC50 [5]
1 | CC(=O)O[C@@H]1[C@H](O)C[C@@]2(C)[C@@H](CC[C@@H](C)[C@]23Cc2c(O)cc4c(c2O3)C[C@H]2OCc3cc(O)c5c(c3[C@H](O2)[C@H]4O)O[C@]2(C5)[C@H](C)CC[C@H]3C(C)(C)[C@H](O)CC[C@@]32C)C1(C)C | 18 µM | 5.5 µM | 6.6 µM | 4.2 µM | 19.3 µM
2 | C[C@@H]1CC[C@H]2C(C)(C)[C@H](O)CC[C@]2(C)[C@@]12Cc1c(O)cc3c(c1O2)[C@@H]1O[C@@H](Cc2c(cc(O)c4c2O[C@]2(C4)[C@H](C)CC[C@H]4C(C)(C)[C@H](O)[C@H](O)C[C@@]42C)[C@@H]1O)OC3 | 6.7 µM | 7.5 µM | 14.2 µM | 2.8 µM | 11.9 µM
3 | C[C@@H]1CC[C@H]2C(C)(C)[C@H](O)[C@H](O)C[C@]2(C)[C@@]12Cc1c(O)cc3c(c1O2)C[C@H]1OCc2cc(O)c4c(c2[C@H](O1)[C@H]3O)O[C@]1(C4)[C@H](C)CC[C@H]2C(C)(C)[C@H](O)[C@H](O)C[C@@]21C | 19.1 µM | 12.3 µM | 19.2 µM | 14.6 µM | 19.3 µM
4 | CC(=O)O[C@H]1C(=O)[C@@]2(C)[C@H]([C@H](OC(=O)c3ccccc3)[C@]3(O)C[C@H](OC(=O)[C@H](O)[C@@H](NC(=O)c4ccccc4)c4ccccc4)C(C)=C1C3(C)C)[C@]1(OC(C)=O)CO[C@@H]1C[C@@H]2O [PACLITAXEL] | 0.038 µM | 0.004 µM | 0.002 µM | 0.002 µM | 0.0102 µM
